# Assay results taken from PubChem BioAssay (NCI).
#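 A five-concentration, 48-hour dose response in 96-well plates underlies each endpoint, interpolated linearly between surrounding concentrations. TGI: concentration producing complete growth inhibition.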
# Legend:
# Test in all cases: NCI tumour cell line growth inhibition, 48 h
# [1] = test system: UACC-257 melanoma
# [2] = test system: SNB-75 CNS
# [3] = test system: SF-539 CNS
# [4] = test system: K-562 leukemia
# [5] = test system: A498 renal
# [6] = test system: DLD-1 colon
# [7] = test system: M14 melanoma
# [8] = test system: SK-MEL-28 melanoma
# [9] = test system: SF-268 CNS
# [10] = test system: SNB-78 CNS
# [11] = test system: XF 498 CNS
# [12] = test system: 786-0 renal
# [13] = test system: NCI-H522 lung
# [14] = test system: OVCAR-8 ovarian
# [15] = test system: M19-MEL melanoma
# [16] = test system: NCI-H23 lung
# [17] = test system: LXFL 529 NSCLC
# [18] = test system: HL-60(TB) leukemia
# [19] = test system: HCC-2998 colon
# [20] = test system: OVCAR-5 ovarian
# [21] = test system: MALME-3M melanoma
# [22] = test system: A549 NSCLC
# [23] = test system: RXF-631 renal
# [24] = test system: CAKI-1 renal
# [25] = test system: SF-295 CNS
# [26] = test system: U251 CNS
# [27] = test system: HOP-62 NSCLC
# [28] = test system: NCI-H460 lung
# [29] = test system: HT29 colon
# [30] = test system: NCI-H226 lung
# [31] = test system: LOX IMVI melanoma
# [32] = test system: COLO 205 colon
# [33] = test system: EKVX NSCLC
# [34] = test system: SK-OV-3 ovarian
# [35] = test system: UO-31 renal
# [36] = test system: SK-MEL-2 melanoma
# [37] = test system: DMS 273 small cell lung
# [38] = test system: MOLT-4 leukemia
# [39] = test system: OVCAR-3 ovarian
# [40] = test system: RPMI-8226 leukemia
# [41] = test system: KM12 colon
# [42] = test system: ACHN renal
# [43] = test system: RXF 393 renal
# [44] = test system: SNB-19 CNS
# [45] = test system: SK-MEL-5 melanoma
# [46] = test system: SW-620 colon
# [47] = test system: SN12C renal
# [48] = test system: CCRF-CEM leukemia
# [49] = test system: HOP-92 NSCLC
# [50] = test system: OVCAR-4 ovarian
# [51] = test system: KM20L2 colon
# [52] = test system: IGROV1 ovarian
# [53] = test system: TK-10 renal
# [54] = test system: DMS 114 small cell lung
# [55] = test system: HCT-15 colon
# [56] = test system: SR leukemia
# [57] = test system: UACC-62 melanoma
# [58] = test system: HCT-116 colon
smiles,measurement,setting,value
CCc1cccc(C)c1NC(=O)C1=C(C)NC(C)=C(C(=O)Nc2c(C)cccc2CC)C1c1ccc([N+](=O)[O-])cc1,TGI,[1],> 100 µM
same,TGI,[2],> 100 µM
same,TGI,[3],> 100 µM
same,TGI,[4],> 100 µM
same,TGI,[5],> 100 µM
same,TGI,[6],> 100 µM
same,TGI,[7],> 100 µM
same,TGI,[8],> 100 µM
same,TGI,[9],> 100 µM
same,TGI,[10],> 100 µM
same,TGI,[11],66.9 µM
same,TGI,[12],> 100 µM
same,TGI,[13],68.3 µM
same,TGI,[14],> 100 µM
same,TGI,[15],> 100 µM
same,TGI,[16],> 100 µM
same,TGI,[17],> 100 µM
same,TGI,[18],49.5 µM
same,TGI,[19],> 100 µM
same,TGI,[20],> 100 µM
same,TGI,[21],> 100 µM
same,TGI,[22],> 100 µM
same,TGI,[23],> 100 µM
same,TGI,[24],89.6 µM
same,TGI,[25],> 100 µM
same,TGI,[26],> 100 µM
same,TGI,[27],> 100 µM
same,TGI,[28],> 100 µM
same,TGI,[29],> 100 µM
same,TGI,[30],> 100 µM
same,TGI,[31],> 100 µM
same,TGI,[32],> 100 µM
same,TGI,[33],> 100 µM
same,TGI,[34],> 100 µM
same,TGI,[35],> 100 µM
same,TGI,[36],> 100 µM
same,TGI,[37],> 100 µM
same,TGI,[38],46.6 µM
same,TGI,[39],> 100 µM
same,TGI,[40],57.3 µM
same,TGI,[41],> 100 µM
same,TGI,[42],> 100 µM
same,TGI,[43],> 100 µM
same,TGI,[44],> 100 µM
same,TGI,[45],> 100 µM
same,TGI,[46],> 100 µM
same,TGI,[47],> 100 µM
same,TGI,[48],> 100 µM
same,TGI,[49],30.1 µM
same,TGI,[50],> 100 µM
same,TGI,[51],> 100 µM
same,TGI,[52],> 100 µM
same,TGI,[53],> 100 µM
Nc1ccc(C(c2ccccc2)(c2ccccc2)c2ccccc2)cc1,TGI,[54],> 100 µM
same,TGI,[1],> 100 µM
same,TGI,[2],53.9 µM
same,TGI,[3],> 100 µM
same,TGI,[4],> 100 µM
same,TGI,[5],> 100 µM
same,TGI,[6],> 100 µM
same,TGI,[7],30.1 µM
same,TGI,[8],56.1 µM
same,TGI,[9],> 100 µM
same,TGI,[10],77 µM
same,TGI,[11],41.1 µM
same,TGI,[12],> 100 µM
same,TGI,[14],> 100 µM
same,TGI,[15],> 100 µM
same,TGI,[16],88.4 µM
same,TGI,[17],> 100 µM
same,TGI,[18],91.6 µM
same,TGI,[19],> 100 µM
same,TGI,[55],> 100 µM
same,TGI,[21],> 100 µM
same,TGI,[22],> 100 µM
same,TGI,[56],> 100 µM
same,TGI,[23],> 100 µM
same,TGI,[25],34.4 µM
same,TGI,[26],62.1 µM
same,TGI,[27],75.8 µM
same,TGI,[28],> 100 µM
same,TGI,[57],41.3 µM
same,TGI,[29],> 100 µM
same,TGI,[31],> 100 µM
same,TGI,[32],> 100 µM
same,TGI,[33],> 100 µM
same,TGI,[34],35.7 µM
same,TGI,[36],> 100 µM
same,TGI,[37],> 100 µM
same,TGI,[38],> 100 µM
same,TGI,[39],> 100 µM
same,TGI,[40],> 100 µM
same,TGI,[41],> 100 µM
same,TGI,[42],> 100 µM
same,TGI,[43],56 µM
same,TGI,[45],> 100 µM
same,TGI,[46],> 100 µM
same,TGI,[47],> 100 µM
same,TGI,[48],> 100 µM
same,TGI,[49],31.1 µM
same,TGI,[50],> 100 µM
same,TGI,[58],> 100 µM
same,TGI,[52],> 100 µM
same,TGI,[53],95.3 µM
